Test results taken from PubChem BioAssay AID2060506 (Molecular Pharmacology Branch, DTP, NCI, 2025).

Tested on: 598228-144-R-J1-PDC complex spheroid viability
Assay: Anticancer human tumor 598228-144-R-J1-PDC patient-derived serous endometrial adenocarcinoma cell line growth inhibition [GQUAD]
Conditions: for IC50: curve of first compound; for viability, T/C: stronger effect = lower value
Summary of the method: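 Tumor cells were grown as complex spheroids with HUVEC endothelial cells and mesenchymal stem cells as stroma. G-quadruplex stabilizers were combined with targeted agents over half-log dilutions from near the clinical Cmax, or from 10 microM.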

[1] = second compound 0.0316 µM, first compound 0.000999 µM
[2] = second compound 0.0316 µM, first compound 0.00316 µM
[3] = second compound 0.0316 µM, first compound 0.00999 µM
[4] = second compound 0.0316 µM, first compound 0.0316 µM
[5] = second compound 0.0316 µM, first compound 0.0999 µM
[6] = second compound 0.0316 µM, first compound 0.316 µM
[7] = second compound 0.1 µM, first compound 0.000999 µM
[8] = second compound 0.1 µM, first compound 0.00316 µM
[9] = second compound 0.1 µM, first compound 0.00999 µM
[10] = second compound 0.1 µM, first compound 0.0316 µM
[11] = second compound 0.1 µM, first compound 0.0999 µM
[12] = second compound 0.1 µM, first compound 0.316 µM
[13] = second compound 0.316 µM, first compound 0.000999 µM
[14] = second compound 0.316 µM, first compound 0.00316 µM
[15] = second compound 0.316 µM, first compound 0.00999 µM
[16] = second compound 0.316 µM, first compound 0.0316 µM
[17] = second compound 0.316 µM, first compound 0.0999 µM
[18] = second compound 0.316 µM, first compound 0.316 µM
[19] = second compound 1 µM, first compound 0.000999 µM
[20] = second compound 1 µM, first compound 0.00316 µM
[21] = second compound 1 µM, first compound 0.00999 µM
[22] = second compound 1 µM, first compound 0.0316 µM
[23] = second compound 1 µM, first compound 0.0999 µM
[24] = second compound 1 µM, first compound 0.316 µM
[25] = second compound 3.16 µM, first compound 0.000999 µM
[26] = second compound 3.16 µM, first compound 0.00316 µM
[27] = second compound 3.16 µM, first compound 0.00999 µM
[28] = second compound 3.16 µM, first compound 0.0316 µM
[29] = second compound 3.16 µM, first compound 0.0999 µM
[30] = second compound 3.16 µM, first compound 0.316 µM
[31] = second compound 10 µM, first compound 0.000999 µM
[32] = second compound 10 µM, first compound 0.00316 µM
[33] = second compound 10 µM, first compound 0.00999 µM
[34] = second compound 10 µM, first compound 0.0316 µM
[35] = second compound 10 µM, first compound 0.0999 µM
[36] = second compound 10 µM, first compound 0.316 µM
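Note: spheroids exposed to the agents for one week before reading.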
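Throughout, for viability, T/C: percent of vehicle DMSO control viability so 100% = untreated growth.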

In the case of `CCc1c2c(nc3ccc(O)cc13)-c1cc3c(c(=O)n1C2)COC(=O)[C@]3(O)CC` + Cc1[nH]c2ccc(F)cc2c1-c1nc2c3cccnc3c3ncccc3c2[nH]1, the IC50 (second compound 0.0316 µM) is reported as 0.021 µM, the IC50 (second compound 0.1 µM) is reported as 0.0139 µM and the IC50 (second compound 0.316 µM) is reported as 0.0372 µM. For the same compound, the IC50 (second compound 1 µM) was 0.00257 µM, the IC50 (second compound 3.16 µM) was less than 0.000999 µM and the IC50 (second compound 10 µM) was 0.00209 µM. It also gave a viability, T/C [1] of 74.7%, a viability, T/C [2] of 73.5% and a viability, T/C [3] of 53.8%. It also gave a viability, T/C [4] of 42.9%, a viability, T/C [5] of 37.9% and a viability, T/C [6] of 13.8%. For the same compound, the viability, T/C [7] was 67%, the viability, T/C [8] was 67.6% and the viability, T/C [9] was 55.4%. The viability, T/C [10] was 34.9%, the viability, T/C [11] was 31.3% and the viability, T/C [12] was 19.5%. For the same compound, the viability, T/C [13] was 75.9%, the viability, T/C [14] was 62.7% and the viability, T/C [15] was 66.3%. The viability, T/C [16] was 53.4%, the viability, T/C [17] was 34.3% and the viability, T/C [18] was 21.4%. It also gave a viability, T/C [19] of 55%, a viability, T/C [20] of 47.3% and a viability, T/C [21] of 43%. For the same compound, the viability, T/C [22] was 37.9%, the viability, T/C [23] was 27.8% and the viability, T/C [24] was 17.8%. It also gave a viability, T/C [25] of 40.6%, a viability, T/C [26] of 36.1% and a viability, T/C [27] of 29.7%. For the same compound, the viability, T/C [28] was 29.2%, the viability, T/C [29] was 13.1% and the viability, T/C [30] was 8.4%. It also gave a viability, T/C [31] of 57%, a viability, T/C [32] of 45.1% and a viability, T/C [33] of 38.8%. The viability, T/C [34] was 29.7%, the viability, T/C [35] was 24.1% and the viability, T/C [36] was 20.4%.
`COc1ccc([C@@H](O)c2cc(-c3ncnc4cc(N5CCOCC5)ccc34)c(F)cc2Cl)nn1` + Cc1[nH]c2ccc(F)cc2c1-c1nc2c3cccnc3c3ncccc3c2[nH]1 showed an IC50 (second compound 0.0316 µM) of 3.14 µM, an IC50 (second compound 0.1 µM) of 1.22 µM and an IC50 (second compound 0.316 µM) of 1.29 µM. It also gave an IC50 (second compound 1 µM) of 0.222 µM, an IC50 (second compound 3.16 µM) of less than 0.0316 µM and an IC50 (second compound 10 µM) of 0.112 µM. The viability, T/C [4] was 96.8%, the viability, T/C (second compound 0.0316 µM, first compound 0.1 µM) was 114% and the viability, T/C [6] was 87.8%. The viability, T/C (second compound 0.0316 µM, first compound 1 µM) was 76.7%, the viability, T/C (second compound 0.0316 µM, first compound 3.16 µM) was 50.4% and the viability, T/C (second compound 0.0316 µM, first compound 10 µM) was 29.1%. For the same compound, the viability, T/C [10] was 112%, the viability, T/C (second compound 0.1 µM, first compound 0.1 µM) was 96% and the viability, T/C [12] was 62.6%. For the same compound, the viability, T/C (second compound 0.1 µM, first compound 1 µM) was 59.5%, the viability, T/C (second compound 0.1 µM, first compound 3.16 µM) was 35% and the viability, T/C (second compound 0.1 µM, first compound 10 µM) was 26%. The viability, T/C [16] was 82.2%, the viability, T/C (second compound 0.316 µM, first compound 0.1 µM) was 71.5% and the viability, T/C [18] was 72.8%. For the same compound, the viability, T/C (second compound 0.316 µM, first compound 1 µM) was 50.5%, the viability, T/C (second compound 0.316 µM, first compound 3.16 µM) was 40.8% and the viability, T/C (second compound 0.316 µM, first compound 10 µM) was 32.4%. For the same compound, the viability, T/C [22] was 64.2%, the viability, T/C (second compound 1 µM, first compound 0.1 µM) was 67.4% and the viability, T/C [24] was 37.4%. The viability, T/C (second compound 1 µM, first compound 1 µM) was 36.9%, the viability, T/C (second compound 1 µM, first compound 3.16 µM) was 27.4% and the viability, T/C (second compound 1 µM, first compound 10 µM) was 18.8%. It also gave a viability, T/C [28] of 48.3%, a viability, T/C (second compound 3.16 µM, first compound 0.1 µM) of 44.9% and a viability, T/C [30] of 34.1%. The viability, T/C (second compound 3.16 µM, first compound 1 µM) was 21.1%, the viability, T/C (second compound 3.16 µM, first compound 3.16 µM) was 18.9% and the viability, T/C (second compound 3.16 µM, first compound 10 µM) was 15.2%. The viability, T/C [34] was 61.5%, the viability, T/C (second compound 10 µM, first compound 0.1 µM) was 49.6% and the viability, T/C [36] was 43.9%. For the same compound, the viability, T/C (second compound 10 µM, first compound 1 µM) was 31.1%, the viability, T/C (second compound 10 µM, first compound 3.16 µM) was 25.6% and the viability, T/C (second compound 10 µM, first compound 10 µM) was 22.5%.
In the case of `Cn1ncnc1[C@H]1c2n[nH]c(=O)c3cc(F)cc(c23)N[C@@H]1c1ccc(F)cc1` + Cc1cnc(CNC(=O)c2c(=O)c3ccc(N4CCCN(C)CC4)nc3n3c2sc2ccccc23)cn1, the IC50 (second compound 0.0316 µM) is reported as greater than 0.316 µM, the IC50 (second compound 0.1 µM) is reported as greater than 0.316 µM and the IC50 (second compound 0.316 µM) is reported as greater than 0.316 µM. For the same compound, the IC50 (second compound 1 µM) was greater than 0.316 µM, the IC50 (second compound 3.16 µM) was 0.193 µM and the IC50 (second compound 10 µM) was 0.000999 µM. The viability, T/C [1] was 81.7%, the viability, T/C [2] was 94% and the viability, T/C [3] was 87.3%. The viability, T/C [4] was 68.3%, the viability, T/C [5] was 74.4% and the viability, T/C [6] was 54.7%. It also gave a viability, T/C [7] of 79.1%, a viability, T/C [8] of 70.3% and a viability, T/C [9] of 61.2%. For the same compound, the viability, T/C [10] was 56.4%, the viability, T/C [11] was 60.3% and the viability, T/C [12] was 63.1%. For the same compound, the viability, T/C [13] was 66.3%, the viability, T/C [14] was 76.4% and the viability, T/C [15] was 56.8%. For the same compound, the viability, T/C [16] was 55.9%, the viability, T/C [17] was 59% and the viability, T/C [18] was 55.1%. The viability, T/C [19] was 55.5%, the viability, T/C [20] was 54.3% and the viability, T/C [21] was 56%. For the same compound, the viability, T/C [22] was 64.2%, the viability, T/C [23] was 59.3% and the viability, T/C [24] was 64.1%. For the same compound, the viability, T/C [25] was 57.5%, the viability, T/C [26] was 53.8% and the viability, T/C [27] was 52.9%. The viability, T/C [28] was 58.5%, the viability, T/C [29] was 57% and the viability, T/C [30] was 42%. For the same compound, the viability, T/C [31] was 40.5%, the viability, T/C [32] was 45.7% and the viability, T/C [33] was 59.1%. It also gave a viability, T/C [34] of 38.1%, a viability, T/C [35] of 51.7% and a viability, T/C [36] of 32.5%.
